Measurements: ChEMBL document CHEMBL1201862, “PubChem BioAssay data set” (2004)
Calls of active or inactive are those of the source.

What was measured:
[1] = biological target: Potassium voltage-gated channel subfamily KQT member 2 (Rattus norvegicus, UniProt O88943); test: potentiation of rat KCNQ2 current – cell-based, retigabine-insensitive compounds, dose response (AID 2654); assay type: functional
[2] = biological target: T1, Caspase-3 (Homo sapiens, UniProt P42574); assay type: functional;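 note: Dose-response selectivity test against caspase-3 for candidate inhibitors of sentrin-specific proteases (SENPs)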
T1 sequence (P42574 whole entry): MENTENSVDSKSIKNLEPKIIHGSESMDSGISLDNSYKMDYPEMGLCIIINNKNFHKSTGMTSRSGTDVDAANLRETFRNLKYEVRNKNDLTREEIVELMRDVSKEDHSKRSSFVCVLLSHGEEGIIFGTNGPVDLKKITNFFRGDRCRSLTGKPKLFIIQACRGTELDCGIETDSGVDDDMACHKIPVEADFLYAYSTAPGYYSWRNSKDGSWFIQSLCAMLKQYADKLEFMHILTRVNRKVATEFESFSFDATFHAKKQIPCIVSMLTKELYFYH

[3] = biological target: T2, Sentrin-specific protease 7 (Homo sapiens, UniProt Q9BQF6); assay type: functional;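 note: Luminescence-based dose-response confirmation of ultra-high-throughput screening hits, measuring inhibition of SENP7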
T2 sequence (Q9BQF6 whole entry): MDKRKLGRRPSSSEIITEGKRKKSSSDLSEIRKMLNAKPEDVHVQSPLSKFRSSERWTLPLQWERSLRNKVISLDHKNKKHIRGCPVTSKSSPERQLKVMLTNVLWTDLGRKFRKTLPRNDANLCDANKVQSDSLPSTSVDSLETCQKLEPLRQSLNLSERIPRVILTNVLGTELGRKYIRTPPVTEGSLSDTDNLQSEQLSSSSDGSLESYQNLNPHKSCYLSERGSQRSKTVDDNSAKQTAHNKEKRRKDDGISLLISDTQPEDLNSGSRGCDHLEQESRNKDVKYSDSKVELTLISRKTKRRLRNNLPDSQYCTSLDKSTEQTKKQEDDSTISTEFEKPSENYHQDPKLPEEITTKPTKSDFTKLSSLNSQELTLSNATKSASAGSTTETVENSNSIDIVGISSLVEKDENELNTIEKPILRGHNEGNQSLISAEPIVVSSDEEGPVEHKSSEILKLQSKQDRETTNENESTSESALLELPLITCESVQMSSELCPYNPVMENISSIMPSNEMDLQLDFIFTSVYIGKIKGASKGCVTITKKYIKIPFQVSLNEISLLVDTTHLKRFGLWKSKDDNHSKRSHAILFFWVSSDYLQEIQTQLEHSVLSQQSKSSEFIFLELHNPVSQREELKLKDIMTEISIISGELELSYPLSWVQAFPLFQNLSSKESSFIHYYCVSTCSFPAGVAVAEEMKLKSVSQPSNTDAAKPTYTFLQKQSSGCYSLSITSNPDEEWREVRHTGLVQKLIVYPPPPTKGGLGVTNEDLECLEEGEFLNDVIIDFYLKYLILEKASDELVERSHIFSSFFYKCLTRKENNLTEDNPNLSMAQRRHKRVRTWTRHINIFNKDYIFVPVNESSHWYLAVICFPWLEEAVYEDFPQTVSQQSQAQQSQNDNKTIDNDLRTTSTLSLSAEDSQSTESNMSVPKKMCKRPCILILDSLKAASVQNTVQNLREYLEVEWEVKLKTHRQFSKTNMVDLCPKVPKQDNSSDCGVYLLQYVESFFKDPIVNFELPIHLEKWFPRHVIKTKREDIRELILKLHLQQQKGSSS

[4] = biological target: T3, Sentrin-specific protease 6 (Homo sapiens, UniProt Q9GZR1); assay type: functional;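 note: Luminescence-based dose-response confirmatory assay of SENP6 inhibition, following up an ultra-high-throughput screen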
T3 sequence (Q9GZR1 whole entry): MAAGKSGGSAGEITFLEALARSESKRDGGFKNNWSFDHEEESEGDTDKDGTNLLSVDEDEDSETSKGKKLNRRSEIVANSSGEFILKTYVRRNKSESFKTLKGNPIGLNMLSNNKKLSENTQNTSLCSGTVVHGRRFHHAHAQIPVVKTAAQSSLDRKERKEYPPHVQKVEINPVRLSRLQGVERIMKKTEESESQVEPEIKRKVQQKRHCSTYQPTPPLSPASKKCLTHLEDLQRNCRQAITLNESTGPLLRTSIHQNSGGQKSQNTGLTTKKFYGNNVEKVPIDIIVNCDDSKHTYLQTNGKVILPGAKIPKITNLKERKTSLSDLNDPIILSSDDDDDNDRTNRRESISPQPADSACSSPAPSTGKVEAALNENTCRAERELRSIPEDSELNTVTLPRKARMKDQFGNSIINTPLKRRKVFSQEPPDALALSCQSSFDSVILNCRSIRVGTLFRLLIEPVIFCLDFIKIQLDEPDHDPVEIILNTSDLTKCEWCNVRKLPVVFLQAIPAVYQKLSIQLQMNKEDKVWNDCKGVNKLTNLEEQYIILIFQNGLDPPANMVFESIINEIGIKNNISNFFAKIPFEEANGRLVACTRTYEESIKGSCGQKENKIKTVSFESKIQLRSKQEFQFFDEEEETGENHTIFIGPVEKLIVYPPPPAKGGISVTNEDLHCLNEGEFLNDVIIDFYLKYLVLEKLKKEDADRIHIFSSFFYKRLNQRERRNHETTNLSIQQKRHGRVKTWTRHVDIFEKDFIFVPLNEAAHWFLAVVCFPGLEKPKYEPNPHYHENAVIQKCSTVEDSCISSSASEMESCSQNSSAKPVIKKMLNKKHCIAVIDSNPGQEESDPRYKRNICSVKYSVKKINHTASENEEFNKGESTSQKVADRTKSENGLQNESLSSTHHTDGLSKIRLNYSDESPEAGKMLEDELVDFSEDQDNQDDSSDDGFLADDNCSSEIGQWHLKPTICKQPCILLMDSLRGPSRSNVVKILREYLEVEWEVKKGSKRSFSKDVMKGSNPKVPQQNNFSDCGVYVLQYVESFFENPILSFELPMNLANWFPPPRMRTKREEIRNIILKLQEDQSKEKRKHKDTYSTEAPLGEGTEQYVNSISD

[5] = biological target: T4, Sentrin-specific protease 8 (Homo sapiens, UniProt Q96LD8); assay type: functional;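 note: luminescence read-out of SENP8 inhibition, dose-response confirmation following an ultra-high-throughput screen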
T4 sequence (Q96LD8 whole entry): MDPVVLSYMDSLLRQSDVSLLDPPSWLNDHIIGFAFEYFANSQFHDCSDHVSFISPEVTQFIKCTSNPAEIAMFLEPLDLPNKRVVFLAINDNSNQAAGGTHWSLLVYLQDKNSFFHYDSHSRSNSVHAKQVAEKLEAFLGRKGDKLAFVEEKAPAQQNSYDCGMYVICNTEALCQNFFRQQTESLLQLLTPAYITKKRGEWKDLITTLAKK

[6] = viability of PTEN-deleted HCT116 cells – cell-based, HCT116 PTEN knockout, dose response (AID 1047); assay type: functional;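 note: HCT116 colon tumor cells with PTEN knocked out; cells exposed to compound for 60 hours before readout; potency for loss of cell viability measured by luminescence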
[7] = viability of HCT116 lacking mutant beta-catenin – cell-based, human colon tumor, dose response (AID 1045); assay type: functional;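 note: HCT116 colon tumor cells with beta catenin knocked out; cells exposed to compound for 60 hours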
[8] = biological target: 1-acylglycerol-3-phosphate O-acyltransferase ABHD5/Perilipin-5 (Homo sapiens, UniProt Q00G26+Q8WTS1); test: Luminescence-based biochemical high throughput dose response assay for inhibitors of the interaction of the lipase co-activator protein, abhydrolase domain containing 5 (ABHD5) with perilipin-5 (MLDP; PLIN5) (2K validation set). [Related pubchem assays (depositor defined):AID493035, AID493241]
[9] = biological target: Perilipin-1/ABHD5 (Homo sapiens, UniProt O60240+Q8WTS1); test: Luminescence-based biochemical high throughput dose response assay for inhibitors of the interaction of the lipase co-activator protein, abhydrolase domain containing 5 (ABHD5) with perilipin-1 (PLIN1) (2K validation set). [Related pubchem assays (depositor defined):AID493027, AID493057]
[10] = biological target: T5, Heat shock factor protein 1 (Mus musculus, UniProt P38532); test: enhancement of HSF1-driven luciferase signal – cell-based, NIH3T3, luminescence, dose retest, confirmation (AID 435004); assay type: functional;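 note: stress induced by proteasome inhibitor MG132 added 30 min after compound; luciferase reporter driven by HSF1 response element in NIH3T3 cells; actives raise luminescence as potentiators of the MG132 stress response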
T5 sequence (P38532 whole entry): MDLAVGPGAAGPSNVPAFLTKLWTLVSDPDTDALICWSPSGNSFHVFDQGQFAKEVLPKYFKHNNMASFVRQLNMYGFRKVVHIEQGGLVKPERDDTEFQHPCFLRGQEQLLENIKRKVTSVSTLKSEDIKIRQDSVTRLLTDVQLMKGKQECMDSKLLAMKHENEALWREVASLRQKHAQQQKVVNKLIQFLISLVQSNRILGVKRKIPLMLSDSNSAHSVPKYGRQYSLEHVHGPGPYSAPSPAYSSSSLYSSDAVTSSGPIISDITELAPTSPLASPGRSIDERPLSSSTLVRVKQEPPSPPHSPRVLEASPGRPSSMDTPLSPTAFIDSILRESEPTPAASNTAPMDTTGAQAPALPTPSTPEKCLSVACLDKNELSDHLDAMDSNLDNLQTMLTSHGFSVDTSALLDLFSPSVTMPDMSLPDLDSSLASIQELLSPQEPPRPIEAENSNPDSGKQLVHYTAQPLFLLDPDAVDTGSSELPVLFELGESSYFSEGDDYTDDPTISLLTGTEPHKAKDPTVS

[11] = tested on: Vero; test: cells; assay type: functional; conditions: Chlorocebus sabaeus
[12] = biological target: Importin subunit alpha-1 (Homo sapiens, UniProt P52292); test: compounds lowering YIC probe YFP/CFP ratio – biochemical, dry powder samples, FRET, counter-screen for RanGTP-importin-beta inhibitor project, dose response (AID 493094); assay type: functional
[13] = biological target: DNA dC->dU-editing enzyme APOBEC-3A (Homo sapiens, UniProt P31941); test: A3A deaminase inhibition for selectivity – biochemical, dose response (AID 504722); assay type: functional
DNA dC->dU-editing enzyme APOBEC-3A, sequence (P31941 whole entry): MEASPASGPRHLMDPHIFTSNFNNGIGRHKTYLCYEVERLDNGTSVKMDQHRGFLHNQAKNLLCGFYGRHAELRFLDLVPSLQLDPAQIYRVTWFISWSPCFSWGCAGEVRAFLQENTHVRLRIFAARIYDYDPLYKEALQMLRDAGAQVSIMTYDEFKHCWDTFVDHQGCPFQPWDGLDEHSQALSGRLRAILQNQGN

[14] = biological target: DNA dC->dU-editing enzyme APOBEC-3G (Homo sapiens, UniProt Q9HC16); test: Dose Response confirmation of small molecule APOBEC3G DNA Deaminase Inhibitors via a fluorescence-based single-stranded DNA deaminase assay. [Related pubchem assays (depositor defined):AID493012, AID493028]; assay type: functional
DNA dC->dU-editing enzyme APOBEC-3G, sequence (Q9HC16 whole entry): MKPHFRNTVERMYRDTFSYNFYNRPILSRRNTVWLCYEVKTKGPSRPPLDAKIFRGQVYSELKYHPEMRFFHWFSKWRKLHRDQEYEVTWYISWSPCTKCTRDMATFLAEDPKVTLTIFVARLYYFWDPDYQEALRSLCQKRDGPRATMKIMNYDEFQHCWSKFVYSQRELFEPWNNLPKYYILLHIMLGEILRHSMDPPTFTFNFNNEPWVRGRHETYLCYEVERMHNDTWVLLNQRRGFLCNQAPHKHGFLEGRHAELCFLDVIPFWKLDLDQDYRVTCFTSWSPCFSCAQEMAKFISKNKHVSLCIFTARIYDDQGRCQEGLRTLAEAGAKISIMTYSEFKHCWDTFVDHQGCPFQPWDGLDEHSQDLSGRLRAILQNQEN

[15] = biological target: Integrin alpha-L (Mus musculus, UniProt P24063); test: modulators of CD8 T cell-vesicle binding, dose response, powder samples, mouse 2C CD8+ cells (AID 504565); assay type: functional
Integrin alpha-L, sequence (P24063 whole entry): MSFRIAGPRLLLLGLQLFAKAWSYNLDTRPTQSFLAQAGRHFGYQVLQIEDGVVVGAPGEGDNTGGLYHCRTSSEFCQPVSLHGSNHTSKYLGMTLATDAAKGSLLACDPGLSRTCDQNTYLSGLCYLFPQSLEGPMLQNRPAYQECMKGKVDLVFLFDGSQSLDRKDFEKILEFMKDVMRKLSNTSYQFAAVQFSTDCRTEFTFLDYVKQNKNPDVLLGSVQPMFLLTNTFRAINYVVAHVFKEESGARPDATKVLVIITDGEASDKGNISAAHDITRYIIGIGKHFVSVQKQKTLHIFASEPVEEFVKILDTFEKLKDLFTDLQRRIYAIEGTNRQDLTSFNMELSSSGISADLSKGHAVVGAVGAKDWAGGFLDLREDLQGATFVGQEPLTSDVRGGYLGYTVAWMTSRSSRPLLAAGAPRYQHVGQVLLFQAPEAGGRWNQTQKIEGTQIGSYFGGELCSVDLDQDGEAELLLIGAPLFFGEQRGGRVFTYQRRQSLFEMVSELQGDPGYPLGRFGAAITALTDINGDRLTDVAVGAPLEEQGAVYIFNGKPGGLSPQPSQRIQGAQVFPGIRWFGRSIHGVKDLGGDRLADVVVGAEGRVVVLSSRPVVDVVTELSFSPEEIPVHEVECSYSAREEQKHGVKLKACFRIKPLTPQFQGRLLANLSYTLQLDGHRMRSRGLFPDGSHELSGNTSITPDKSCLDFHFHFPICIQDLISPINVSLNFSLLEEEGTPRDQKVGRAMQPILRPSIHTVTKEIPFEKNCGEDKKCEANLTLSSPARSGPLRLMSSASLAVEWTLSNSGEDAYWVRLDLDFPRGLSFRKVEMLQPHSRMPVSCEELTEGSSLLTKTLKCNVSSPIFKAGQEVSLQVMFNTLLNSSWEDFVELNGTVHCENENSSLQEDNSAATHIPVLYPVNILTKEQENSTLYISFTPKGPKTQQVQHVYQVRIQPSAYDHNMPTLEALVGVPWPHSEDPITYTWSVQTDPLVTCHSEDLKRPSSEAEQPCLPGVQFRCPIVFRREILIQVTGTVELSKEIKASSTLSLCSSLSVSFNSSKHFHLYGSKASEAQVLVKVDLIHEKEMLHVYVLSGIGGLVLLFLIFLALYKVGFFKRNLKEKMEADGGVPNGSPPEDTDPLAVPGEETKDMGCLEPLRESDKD

[16] = luciferase reporter signal suppression in cells – H4 neuroglioma cells, luminescence, dose response (AID 1990); assay type: functional, cell-based
[17] = luciferase reporter signal reduction – luminescence, H4-C neuroglioblastoma cells, dose response (AID 2458); assay type: functional, cell-based;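 note: H4 neuroglioblastoma cells stably carrying a luciferase reporter gene fusion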
[18] = tested on: Streptococcus sp. 'group A'; test: Streptococcus pyogenes SK(-)GAS viability under kanamycin – luminescence, BacTiterGlo, confirmation, counter-screen for streptokinase expression inhibitor project, dose response (AID 1900); assay type: functional, organism-based
[19] = cells; assay type: functional, cell-based
[20] = biological target: T6, Beta-galactosidase (Escherichia coli, UniProt Q8VNN2); test: PubChem AID 485352; assay type: functional
T6 sequence (Q8VNN2 whole entry): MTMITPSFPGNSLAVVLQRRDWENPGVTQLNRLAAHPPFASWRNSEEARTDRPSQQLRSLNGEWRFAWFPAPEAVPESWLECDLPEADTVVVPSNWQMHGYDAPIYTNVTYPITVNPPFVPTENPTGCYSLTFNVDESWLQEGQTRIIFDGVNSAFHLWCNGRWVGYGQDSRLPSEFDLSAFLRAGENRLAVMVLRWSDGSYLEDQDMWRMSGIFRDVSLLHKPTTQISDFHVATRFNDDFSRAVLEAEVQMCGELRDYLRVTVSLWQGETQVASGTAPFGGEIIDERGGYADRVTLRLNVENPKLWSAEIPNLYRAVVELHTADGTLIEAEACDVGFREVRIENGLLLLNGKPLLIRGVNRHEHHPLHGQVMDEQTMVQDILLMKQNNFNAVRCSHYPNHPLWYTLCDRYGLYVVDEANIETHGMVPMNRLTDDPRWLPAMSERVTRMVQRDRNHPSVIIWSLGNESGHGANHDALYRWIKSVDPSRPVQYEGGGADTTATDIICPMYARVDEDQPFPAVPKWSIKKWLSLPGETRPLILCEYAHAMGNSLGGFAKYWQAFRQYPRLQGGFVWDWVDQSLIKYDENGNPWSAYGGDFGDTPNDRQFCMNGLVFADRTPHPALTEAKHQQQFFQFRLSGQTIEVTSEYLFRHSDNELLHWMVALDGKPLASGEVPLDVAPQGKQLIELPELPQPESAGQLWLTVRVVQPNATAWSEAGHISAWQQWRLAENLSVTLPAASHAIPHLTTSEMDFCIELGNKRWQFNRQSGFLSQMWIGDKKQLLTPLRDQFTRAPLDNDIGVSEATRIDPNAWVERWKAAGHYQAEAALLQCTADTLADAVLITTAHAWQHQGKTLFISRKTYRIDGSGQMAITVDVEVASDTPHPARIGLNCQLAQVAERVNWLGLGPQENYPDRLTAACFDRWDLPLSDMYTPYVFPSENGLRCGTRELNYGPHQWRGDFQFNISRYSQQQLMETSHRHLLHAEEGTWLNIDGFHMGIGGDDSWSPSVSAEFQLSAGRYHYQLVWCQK

[21] = alpha-synuclein stem-loop luciferase translation blockers – H4 neuroglioma cells, luminescence, confirmation (AID 1988); assay type: functional, cell-based
[22] = biological target: Type-1 angiotensin II receptor (Homo sapiens, UniProt P30556); test: antagonism of angiotensin II type 1 receptor – cell-based, uHTS hits, selectivity assay for APJ receptor antagonist project, dose response (AID 463214); assay type: functional;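 note: antagonist potency against angiotensin II stimulated AT1 response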
Type-1 angiotensin II receptor, sequence (P30556 whole entry): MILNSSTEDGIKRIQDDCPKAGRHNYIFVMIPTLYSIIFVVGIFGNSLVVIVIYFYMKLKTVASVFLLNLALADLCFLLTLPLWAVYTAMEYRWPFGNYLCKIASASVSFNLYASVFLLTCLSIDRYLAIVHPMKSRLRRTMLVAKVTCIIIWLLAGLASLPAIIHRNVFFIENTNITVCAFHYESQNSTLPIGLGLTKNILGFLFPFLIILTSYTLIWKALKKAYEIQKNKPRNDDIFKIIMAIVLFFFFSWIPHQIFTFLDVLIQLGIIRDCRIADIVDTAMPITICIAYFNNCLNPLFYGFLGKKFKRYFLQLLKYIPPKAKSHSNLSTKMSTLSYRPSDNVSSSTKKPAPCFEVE

[23] = biological target: T7, Kappa-type opioid receptor (Homo sapiens, UniProt P41145); assay type: functional
T7 sequence (P41145 whole entry): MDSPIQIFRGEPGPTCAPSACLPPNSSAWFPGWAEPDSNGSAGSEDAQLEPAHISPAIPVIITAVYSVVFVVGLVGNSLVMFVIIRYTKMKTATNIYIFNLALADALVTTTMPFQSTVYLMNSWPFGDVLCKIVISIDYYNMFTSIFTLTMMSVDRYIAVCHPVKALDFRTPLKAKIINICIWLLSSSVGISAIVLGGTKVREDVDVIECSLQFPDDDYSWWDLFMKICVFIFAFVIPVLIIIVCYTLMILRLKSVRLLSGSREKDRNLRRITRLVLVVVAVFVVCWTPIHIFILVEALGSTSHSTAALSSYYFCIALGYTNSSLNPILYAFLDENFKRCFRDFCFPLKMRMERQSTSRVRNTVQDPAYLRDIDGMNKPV

[24] = biological target: T6, Beta-galactosidase; assay type: functional
[25] = biological target: T7, Kappa-type opioid receptor; assay type: functional; remark: listed apart in the source
[26] = tested on: Streptococcus; test: GAS UMAA2166 growth inhibition – luminescence, BacTiterGlo, counter-screen for streptokinase expression inhibitor project, dose response (AID 1915); assay type: functional, organism-based;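 note: potency for reduction of bacterial viability or growth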
[27] = alpha-synuclein stem-loop translation blockers – luminescence, H4 neuroglioblastoma cells, dose confirmation, confirmation (AID 2454); assay type: functional, cell-based;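 note: H4 neuroglioblastoma cells carrying an alpha-synuclein 5'UTR luciferase reporter; potency for inhibition of the luciferase signal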
[28] = THP-1 cell cytotoxicity, dose response, cytotoxicity control for non-replicating M. tuberculosis project (AID 489025); assay type: functional
[29] = HepG2 cell cytotoxicity, dose response, cytotoxicity control for non-replicating M. tuberculosis project (AID 489018); assay type: functional; conditions: Mycobacterium tuberculosis
[30] = Vero E6 cell cytotoxicity, dose response, cytotoxicity control for non-replicating M. tuberculosis project, secondary assay (AID 492998); assay type: functional, VeroE6; conditions: Vero C1008
[31] = biological target: Nonstructural protein 1 (Influenza A virus, UniProt Q194T2); assay type: functional, Influenza A virus (A/California/07/2009(H1N1))
Nonstructural protein 1, sequence (Q194T2 whole entry): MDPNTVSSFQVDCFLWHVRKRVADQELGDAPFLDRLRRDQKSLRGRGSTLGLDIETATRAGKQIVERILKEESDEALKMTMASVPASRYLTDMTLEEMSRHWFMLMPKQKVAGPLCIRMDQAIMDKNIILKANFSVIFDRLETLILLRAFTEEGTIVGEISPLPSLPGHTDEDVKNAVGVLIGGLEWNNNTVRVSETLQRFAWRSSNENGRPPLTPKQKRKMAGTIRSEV

[32] = cells; assay type: functional
[33] = tested on: Vero; test: cells; assay type: functional, cell-based; conditions: Chlorocebus sabaeus
[34] = tested on: INS1; test: INS-1E survival protection against cytokine death – cell-based, luminescence, retest, dose response (AID 449756); assay type: functional; conditions: Rattus norvegicus;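 note: cell death triggered by IL-1 beta plus TNF-alpha plus IFN-gamma mixture; protective hits raise ATP signal compared with cytokine alone wells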
[35] = biological target: T6, Beta-galactosidase; test: Dose response counterscreen for EBI2 assay utilizing the enzyme, b-galactosidase.; assay type: functional

Potassium voltage-gated channel subfamily KQT member 2, sequence (O88943 whole entry): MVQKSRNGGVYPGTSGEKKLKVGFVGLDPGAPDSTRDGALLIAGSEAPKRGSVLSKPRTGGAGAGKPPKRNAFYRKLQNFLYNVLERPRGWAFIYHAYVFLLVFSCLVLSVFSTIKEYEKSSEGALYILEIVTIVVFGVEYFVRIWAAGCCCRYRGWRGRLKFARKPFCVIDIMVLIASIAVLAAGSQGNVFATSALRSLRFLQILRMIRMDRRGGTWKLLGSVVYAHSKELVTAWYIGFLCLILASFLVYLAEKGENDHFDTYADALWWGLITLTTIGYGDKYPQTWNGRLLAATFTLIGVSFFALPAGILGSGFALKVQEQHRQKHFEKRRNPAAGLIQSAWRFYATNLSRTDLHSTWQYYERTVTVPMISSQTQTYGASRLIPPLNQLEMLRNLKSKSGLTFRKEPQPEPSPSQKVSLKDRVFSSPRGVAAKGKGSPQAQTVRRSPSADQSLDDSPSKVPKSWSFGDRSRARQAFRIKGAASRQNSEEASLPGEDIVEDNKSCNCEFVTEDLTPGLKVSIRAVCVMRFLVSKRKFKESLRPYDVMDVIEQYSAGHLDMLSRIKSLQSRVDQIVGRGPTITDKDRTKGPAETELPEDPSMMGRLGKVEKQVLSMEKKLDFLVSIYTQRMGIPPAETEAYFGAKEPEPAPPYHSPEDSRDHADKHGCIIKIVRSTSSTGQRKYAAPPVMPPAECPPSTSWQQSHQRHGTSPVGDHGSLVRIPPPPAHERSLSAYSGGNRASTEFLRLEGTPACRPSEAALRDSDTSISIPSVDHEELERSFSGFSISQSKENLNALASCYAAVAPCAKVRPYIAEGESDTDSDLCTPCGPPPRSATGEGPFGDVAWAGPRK

CCCCc1ccc(NC(=O)Nc2cccnc2)cc1
EC50 [1]: 13.7 µM (active)
IC50 [2]: 22.7 µM (active)
IC50 [3]: 5.08 µM (active)
IC50 [4]: 14.1 µM (active)
IC50 [5]: 16.8 µM (active)

O=C(/C=C/Sc1ccccc1)c1ccccc1
EC50 [6]: 27.7 µM (active)
EC50 [7]: 28.4 µM (active)
IC50 [8]: 3.91 µM (active)
IC50 [9]: 3.91 µM (active)
EC50 [10]: 5.83 µM (active)
CC50 [11]: 23.6 µM (active)

CSc1ccc(/C=C(/Sc2nnc(-c3ccccc3)o2)C(=O)O)cc1
AC50 [12]: 116 µM (active)

CCc1c(C)nc(S)c(C#N)c1C
IC50 [13]: > 100 µM (inactive)
IC50 [14]: 6 µM (active)

O=C(c1ccc(N2C(=O)C3CC=C(Cl)CC3C2=O)cc1)N1CCCCC1 (stereo unspecified)
EC50 [15]: 9.02 µM (active)

C/C(=N\NC(=O)c1cccc(Br)c1)c1ccccn1
EC50 [16]: 30 µM (active)
EC50 [17]: 0.714 µM (active)
EC50 [18]: 1.29 µM (active)
EC50 [19]: 0.966 µM (active)
EC50 [20]: > 40 µM (inactive)
EC50 [21]: < 0.1 µM (active)
IC50 [22]: 3.51 µM (active)
IC50 [23]: 1.82 µM (active)
EC50 [24]: > 31.5 µM (inactive)
IC50 [25]: > 32 µM
EC50 [26]: 4.74 µM (active)
EC50 [27]: 0.895 µM (active)
CC50 [28]: 0.584 µM (active)
CC50 [29]: 2.71 µM (active)
CC50 [30]: 1.03 µM (active)
IC50 [31]: 1.67 µM (active)
IC50 [32]: 0.57 µM (active)
IC50 [33]: > 25 µM (active)
AC50 [34]: 0.315 µM (active)
CC50 [11]: 1.78 µM (active)
IC50 [35]: > 80 µM (inactive)
